The text below walks through data of US20200031848A1, “AR-V7 INHIBITORS” (Hoffmann-La Roche Inc., priority 2016, published 2020).

In data set [1] the test system is PSA levels secreted into the media. Description: Prostate-specific antigen (PSA) assay. Type of data set: cell-based. Particulars: Homo sapiens, 72 h; in parallel to the eGFP assay, same plates, 3 days. How it is done: (§1) 1. Cell Culture: LNCaP and PC3 human prostate cancer cells were obtained from American Type Culture Collection (ATCC, Manassas, Va.) and grown in RPMI 1640 medium supplemented with 5% fetal bovine serum (FBS) (Invitrogen). The LNCaP eGFP cell line was stably transfected with an androgen-responsive probasin-derived promoter fused to an eGFP reporter (LN-ARR2PB-eGFP) using a lentiviral approach, and were grown in phenol-red-free RPMI 1640 supplemented with 5% CSS. In-house developed MDV3100-resistant LNCaP cells were cultured in RPMI 1640 supplemented with 5% FBS and 10 μM MDV3100. All cells were maintained at 37° C. in 5% CO2.
3. Prostate-specific antigen (PSA) assay: The evaluation of PSA levels secreted into the media was performed in parallel to the eGFP assay using the same plates. After cells were incubated for 3 days, 150 μl of the media was taken from each well, and added to 150 μl of PBS. PSA levels were then evaluated using Cobas e 411 analyzer instrument (Roche Diagnostics) according to the manufacturer's instructions.

Data set [2] deals with T1, AR transcriptional activity (Homo sapiens, UniProt P10275, T878A).
T1 construct: The LNCaP eGFP cell line was stably transfected with an androgen-responsive probasin-derived promoter fused to an eGFP reporter; endogenous in cells; host or cells: LNCaP eGFP (LN-ARR2PB-eGFP) human prostate cancer cells
T1 sequence (P10275 1-920 T878A): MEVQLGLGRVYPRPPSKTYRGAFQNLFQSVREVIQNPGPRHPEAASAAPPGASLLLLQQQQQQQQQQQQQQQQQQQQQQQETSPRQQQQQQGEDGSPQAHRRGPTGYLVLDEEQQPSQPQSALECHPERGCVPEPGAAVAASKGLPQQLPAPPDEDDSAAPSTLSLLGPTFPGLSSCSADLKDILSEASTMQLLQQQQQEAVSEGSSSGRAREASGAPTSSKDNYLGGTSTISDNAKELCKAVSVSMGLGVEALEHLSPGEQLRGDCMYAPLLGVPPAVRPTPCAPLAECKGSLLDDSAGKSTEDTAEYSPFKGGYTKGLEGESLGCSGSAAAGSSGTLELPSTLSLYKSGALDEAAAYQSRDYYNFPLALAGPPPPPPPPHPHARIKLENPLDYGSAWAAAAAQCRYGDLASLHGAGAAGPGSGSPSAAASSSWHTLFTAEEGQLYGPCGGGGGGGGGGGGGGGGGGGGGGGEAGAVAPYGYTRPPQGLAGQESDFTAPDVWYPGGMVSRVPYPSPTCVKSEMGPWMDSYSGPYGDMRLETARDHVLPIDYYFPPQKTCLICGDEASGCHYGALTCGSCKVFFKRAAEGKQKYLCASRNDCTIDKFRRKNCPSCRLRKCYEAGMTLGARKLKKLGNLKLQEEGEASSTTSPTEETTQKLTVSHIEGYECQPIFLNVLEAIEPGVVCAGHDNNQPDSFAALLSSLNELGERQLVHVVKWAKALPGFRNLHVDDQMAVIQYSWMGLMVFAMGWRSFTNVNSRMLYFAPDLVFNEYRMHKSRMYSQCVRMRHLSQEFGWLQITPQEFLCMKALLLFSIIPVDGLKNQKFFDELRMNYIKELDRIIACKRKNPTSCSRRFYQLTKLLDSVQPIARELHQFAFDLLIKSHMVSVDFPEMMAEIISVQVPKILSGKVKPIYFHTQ
Nature of the data set: eGFP cellular AR transcription assay. To be noted: for inhibition at 1 µM: read-out: eGFP % inhib. at 1 μM. The format is cell-based.
Source text: The DNA-binding domain is an attractive target for inhibition of AR dimerization and/or DNA binding. In silico computational drug discovery methods were used to conduct a virtual screen of >3 million purchasable lead-like compounds from the ZINC database (Irwin, J. et al.^11) to identify potential DBD binders. The in silico methods included large-scale docking, in-site rescoring and consensus voting procedures. It will be understood by a person of skill that COOH and NR2 may include the corresponding ions, for example carboxylate ions and ammonium ions, respectively. Alternatively, where the ions are shown, a person of skill in the art will appreciate that the counter ion may also be present. Furthermore, it will be appreciated by a person of skill that other moieties may include the corresponding ions, and where the ions are shown, a person of skill in the art will appreciate that the counter ion may also be present. […] Where the % inhibition, eGFP IC50 or the PSA IC50 has no value given, this may be because no measurement was taken or the value was not calculated, in the case of the % inhibition. In vitro identification of AR inhibitors targeting AR DBD The selected compounds were assessed with a non-destructive eGFP assay that quantifies levels of AR transcriptional activity, were identified (table below).
as §1
2. eGFP cellular AR transcription assay: The AR transcriptional activity was assayed as previously described (Tavassoli, P., et al.^12).

A short description of data set [3]: in vitro. Particulars: human, microsomes; for microsomal CLint at 2 μM: pH 7.4. The method, then:
Microsomal incubations were carried out in 96-well plates in 5 aliquots of 40 μL each (one for each time point). […] Control incubations were performed replacing the NADPH-cofactor system with PBS. […] Incubations were performed in duplicates. Five time points over 40 minutes had been analyzed. The reactions were stopped by adding 12 volumes of 90% acetonitrile-water to incubation aliquots, followed by protein sedimentation by centrifuging at 5500 rpm for 5 minutes. Supernatants were analyzed using the HPLC system coupled with tandem mass spectrometer. The elimination constant (kel), half-life (t1/2) and intrinsic clearance (Clint) were determined in plot of […] versus time, using linear regression analysis: […]

In the case of `CC1(C)CN(c2nc(-n3cc(Br)nc3Br)cs2)CCO1` [Example 1, 4-[4-(2,4-dibromoimidazol-1-yl)thiazol-2-yl]-2,2-dimethyl-morpholine], the IC50 in data set [1] is 95 nM; in data set [2] (LNCaP eGFP cell line) it was 117 nM.

With `Brc1cn(-c2csc(N3[C@@H]4CCC[C@H]3COC4)n2)c(Br)n1` [Example 2, (1S,5R)-9-[4-(2,4-dibromoimidazol-1-yl)thiazol-2-yl]-3-oxa-9-azabicyclo[3.3.1]nonane], the IC50 in data set [1] turned out to be 74 nM; in data set [2] (LNCaP eGFP cell line) it was 135 nM.

Take `Brc1ncn(-c2csc(N3C[C@H]4CC[C@@H](C3)O4)n2)c1Br` [Example 3, (1R,5S)-3-[4-(4,5-dibromoimidazol-1-yl)thiazol-2-yl]-8-oxa-3-azabicyclo[3.2.1]octane]: the IC50 in data set [1] came to 1060 nM; in data set [2] (LNCaP eGFP cell line), 182 nM.

Take `Brc1ncn(-c2csc(N3[C@@H]4CCC[C@H]3COC4)n2)c1Br` [Example 4, (1S,5R)-9-[4-(4,5-dibromoimidazol-1-yl)thiazol-2-yl]-3-oxa-9-azabicyclo[3.3.1]nonane]: the figures for the IC50 in data set [1] and in data set [2] (LNCaP eGFP cell line) were 6 nM and 196 nM, respectively.

Turning to `Clc1ncn(-c2csc(N3[C@@H]4CCC[C@H]3COC4)n2)c1Br` [Example 5, (1R,5S)-9-[4-(5-bromo-4-chloro-imidazol-1-yl)thiazol-2-yl]-3-oxa-9-azabicyclo[3.3.1]nonane], the values for the IC50 in data set [1] and in data set [2] (LNCaP eGFP cell line) were 181 nM and 268 nM, respectively.

As for `Clc1ncn(-c2csc(N3[C@@H]4CC[C@H]3COC4)n2)c1Br` [Example 6, (1R,5S)-8-[4-(5-bromo-4-chloro-imidazol-1-yl)thiazol-2-yl]-3-oxa-8-azabicyclo[3.2.1]octane], the IC50 is 377 nM in data set [1] and 404 nM in data set [2] (LNCaP eGFP cell line).

With `Brc1ncn(-c2csc(N3[C@@H]4CC[C@H]3COC4)n2)c1Br` [Example 7, (1R,5S)-8-[4-(4,5-dibromoimidazol-1-yl)thiazol-2-yl]-3-oxa-8-azabicyclo[3.2.1]octane], the IC50 in data set [1] stood at 385 nM; in data set [2] (LNCaP eGFP cell line) it was 458 nM.

Turning to `Clc1c(Br)ncn1-c1csc(N2[C@@H]3CC[C@H]2COC3)n1` [Example 8, (1R,5S)-8-[4-(4-bromo-5-chloro-imidazol-1-yl)thiazol-2-yl]-3-oxa-8-azabicyclo[3.2.1]octane], the IC50 in data set [1] and in data set [2] (LNCaP eGFP cell line) was 717 nM throughout.

`Clc1c(Br)ncn1-c1csc(N2[C@@H]3CCC[C@H]2COC3)n1` [Example 9, (1R,5S)-9-[4-(4-bromo-5-chloro-imidazol-1-yl)thiazol-2-yl]-3-oxa-9-azabicyclo[3.3.1]nonane]: the IC50 in data set [1] was determined as 784 nM; in data set [2] (LNCaP eGFP cell line) it was 746 nM.

In the case of `Brc1cn(-c2csc(N3[C@@H]4CC[C@H]3COC4)n2)c(Br)n1` [Example 10, (1R,5S)-8-[4-(2,4-dibromoimidazol-1-yl)thiazol-2-yl]-3-oxa-8-azabicyclo[3.2.1]octane], the IC50 amounted to 817 nM in data set [1] and 934 nM in data set [2] (LNCaP eGFP cell line).

As to `Brc1cn(-c2csc(N3CCOCC3)n2)c(Br)n1` [Example 40, 4-[4-(2,4-dibromoimidazol-1-yl)thiazol-2-yl]morpholine], the microsomal CLint at 2 μM in data set [3] turned out to be 177 µL/min/mg. For the same compound, the IC50 is 420 nM in data set [1] and 413 nM in data set [2] (LNCaP eGFP cell line).

Take `CSc1nc(Br)cn1-c1csc(N2CCOCC2)n1` [Example 41, 4-[4-(4-bromo-2-methylsulfanyl-imidazol-1-yl)thiazol-2-yl]morpholine]: in data set [3], the microsomal CLint at 2 μM came to 198 µL/min/mg. Moreover, the IC50 amounted to 458 nM in data set [1] and 496 nM in data set [2] (LNCaP eGFP cell line).

`Cc1nc(Br)cn1-c1csc(N2CCOCC2)n1` [Example 42, 4-[4-(4-bromo-2-methyl-imidazol-1-yl)thiazol-2-yl]morpholine] yielded a microsomal CLint at 2 μM in data set [3] of 72 µL/min/mg. The IC50 in data set [1] amounted to 659 nM; in data set [2] (LNCaP eGFP cell line), 750 nM.

In turn, `Brc1ncn(-c2csc(N3CCOCC3)n2)c1Br` [Example 43, 4-[4-(4,5-dibromoimidazol-1-yl)thiazol-2-yl]morpholine] yielded an intrinsic metabolic clearance (microsomal CLint) at 2 μM in data set [3] of 165 µL/min/mg. For the same compound, the IC50 in data set [1] was determined as 1390 nM; in data set [2] (LNCaP eGFP cell line) it was 1230 nM.

Turning to `N#Cc1cn(-c2csc(N3CCOCC3)n2)cn1` [Example 58, 1-(2-morpholinothiazol-4-yl)imidazole-4-carbonitrile], the microsomal CLint at 2 μM in data set [3] worked out at 23 µL/min/mg. Besides, the inhibition at 1 µM in data set [2] came out at 2%.

The compound `Brc1nccn1-c1csc(N2CCOCC2)n1` [Example 59, 4-[4-(2-bromoimidazol-1-yl)thiazol-2-yl]morpholine] displayed a microsomal CLint at 2 μM in data set [3] of 42 µL/min/mg. In addition, in data set [2], the inhibition at 1 µM turned out to be 35%.

As for `Cc1nc(-c2ccccc2)cn1-c1csc(N2CCOCC2)n1` [Example 60, 4-[4-(2-methyl-4-phenyl-imidazol-1-yl)thiazol-2-yl]morpholine], the microsomal CLint at 2 μM in data set [3] turned out to be 44 µL/min/mg. The inhibition at 1 µM in data set [2] came out at 3%.

As for `OCc1c(Br)ncn1-c1csc(N2CCOCC2)n1` [Example 61, [5-bromo-3-(2-morpholinothiazol-4-yl)imidazol-4-yl]methanol], in data set [3], the “metabolic stability in human hepatic microsomal test system (in words)” value was “high metabolic stability” and the microsomal CLint at 2 μM is 15 µL/min/mg. Besides, the inhibition at 1 µM in data set [2] stood at 31%.

The compound `OCc1ncn(-c2csc(N3CCOCC3)n2)c1Br` [Example 62, [5-bromo-1-(2-morpholinothiazol-4-yl)imidazol-4-yl]methanol] gave a microsomal CLint at 2 μM in data set [3] of 19 µL/min/mg. Moreover, the “eGFP IC50” value in data set [2] (LNCaP eGFP cell line) is listed as “inact”.

In general, IC50 refers to the concentration that gives 50% inhibition. The low end stands for greater potency in that assay, the high end for weaker potency in that assay. For orientation: microsomal CLint means a measure of how fast metabolising enzymes remove a compound, apart from limits set by blood flow.
